The text below walks through data of PubChem BioAssay AID294 (DTP/NCI, 2004).

The assay concerns MX-1 breast xenograft, nude mice, tumor weight change. The assay is described as follows: NCI In Vivo Anticancer Drug Screen. Data for tumor model Human Mammary Carcinoma MX-1 Xenograft (subcutaneous) in NU/NU Swiss (nude) mice. The settings on record: endpoint: optimum tumor weight change, schedule: Q04DX003 (ip), higher = larger tumour. The protocol:
The antitumor activity of compounds was measured in mice bearing transplantable tumors. Survival or tumor size were measured and the results are expressed as the measurement made in the treated group (T) divided by the measurement made in the vehicle treated control group (C). The tumor model used in this assay is Human Mammary Carcinoma MX-1 Xenograft (subcutaneous) in NU/NU Swiss (nude) mice
A general note: In xenograft studies the graft and the host belong to different species.

The mark [1] stands for this setting: dose: 50.0 mg/kg/injection, vehicle: Klucel (hydroxypropylcellulose) (HPC).
[2] abbreviates: dose: 100.0 mg/kg/injection, vehicle: Klucel (hydroxypropylcellulose) (HPC).
Setting [3] is: dose: 4.0 mg/kg/injection, vehicle: saline.
Setting [4] is: dose: 8.0 mg/kg/injection, vehicle: saline.
Where [5] appears, read: dose: 200.0 mg/kg/injection, vehicle: saline.
Setting [6] is: dose: 50.0 mg/kg/injection, vehicle: saline.
Where [7] appears, read: dose: 100.0 mg/kg/injection, vehicle: saline.
[8] abbreviates: dose: 100.0 mg/kg/injection, vehicle: saline with Tween-80.
The mark [9] stands for this setting: dose: 400.0 mg/kg/injection, vehicle: Klucel (hydroxypropylcellulose) (HPC).
Setting [10] is: dose: 25.0 mg/kg/injection, vehicle: saline.
The mark [11] stands for this setting: dose: 12.5 mg/kg/injection, vehicle: saline.
Where [12] appears, read: dose: 200.0 mg/kg/injection, vehicle: suspension in saline.
The mark [13] stands for this setting: dose: 400.0 mg/kg/injection, vehicle: suspension in saline.
Where [14] appears, read: dose: 800.0 mg/kg/injection, vehicle: suspension in saline.

Values joined by “and” are separate entries in the source; they are usually repeats but may differ in a detail not shown here. Identical values can stand only once.

Consider `CCCC(=O)OCc1cc(=O)n(C)c2c3c4c(cc12)c(C)cc(=O)n4CO3`, for which the T/C – broadly, the result in the treated group divided by that in the control group, in per cent – is 48 % of control under setting [1] and 70 % of control under setting [2].

For `Cc1c(N)nc([C@H](CC(N)=O)NC[C@H](N)C(N)=O)nc1C(=O)N[C@H](C(=O)N[C@H](C)[C@@H](O)CC(=O)N[C@H](C(=O)NC(O[C@@H]1O[C@@H](C)[C@@H](N)[C@@H](O)[C@H]1O)C(O)c1nc(-c2nc(C(=O)NCCCCN)cs2)cs1)[C@@H](C)O)[C@@H](O[C@@H]1O[C@@H](CO)[C@@H](O)[C@H](O)[C@@H]1O[C@H]1O[C@H](CO)[C@@H](O)[C@H](OC(N)=O)[C@@H]1O)c1c[nH]cn1` (some centres undefined), the T/C runs as follows: (dose: 2.0 mg/kg/injection, vehicle: saline) 84 % of control; under setting [3], 47 % of control; under setting [4], 42 % of control; (dose: 32.0 mg/kg/injection, vehicle: saline) 7 % of control and 21 % of control and 29 % of control; (dose: 64.0 mg/kg/injection, vehicle: saline) 32 % of control.

On to `O=CC(S)CO` (centres undefined), for which the T/C under setting [5] was 61 % of control.

On to `N=C(N)Sc1ccccn1`, for which the T/C is 106 % of control under setting [6], 77 % of control under setting [7] and 60 % of control under setting [5].

`CN1CCN(CCCN2c3ccccc3Sc3ccc(C(F)(F)F)cc32)CC1`: the T/C under setting [6] is 58 % of control.

As to `CC(=O)OCC1OC(n2cc(CBr)nn2)C(OC(C)=O)C(OC(C)=O)C1OC(C)=O` (centres undefined), the T/C by setting is: (dose: 25.0 mg/kg/injection, vehicle: saline with Tween-80) 119 % of control; (dose: 50.0 mg/kg/injection, vehicle: saline with Tween-80) 150 % of control; under setting [8], 57 % of control.

Turning to `COC(OC(CO)C(O)S(=O)(=O)O)C(O)S(=O)(=O)O` (centres undefined), the T/C (dose: 25.0 mg/kg/injection, vehicle: Klucel (hydroxypropylcellulose) (HPC)) was 83 % of control; the T/C under setting [1] is 80 % of control; the T/C under setting [2] was 62 % of control; the T/C under setting [7] is 63 % of control; the T/C under setting [5] was 74 % of control; the T/C (dose: 400.0 mg/kg/injection, vehicle: saline) is 68 % of control. Under “dose: 800.0 mg/kg/injection, vehicle: saline”, the T/C was 47 % of control.

`O=c1[nH]cnc2n[nH]nc12`: the T/C under setting [9] is 99 % of control.

For `O=NN(CCCl)C(=O)NC1CCCCC1`, the T/C (dose: 12.5 mg/kg/injection, vehicle: Klucel (hydroxypropylcellulose) (HPC)) was 75 % of control.

Consider `COc1cccc2c1C(=O)c1c(O)c3c(c(O)c1C2=O)C[C@@](O)(/C(C)=N\O)C[C@@H]3OC1CC(N)C(O)C(C)O1` (some centres undefined), for which, under setting [10], the T/C is 66 % of control.

For the compound `N/C(=N\O)c1cn(C2OC(CO)C(O)C2O)c2ncnc(N)c12` (centres undefined), the T/C runs as follows: (dose: 5.0 mg/kg/injection, vehicle: Klucel (hydroxypropylcellulose) (HPC)) 109 % of control; (dose: 10.0 mg/kg/injection, vehicle: Klucel (hydroxypropylcellulose) (HPC)) 80 % of control; (dose: 20.0 mg/kg/injection, vehicle: Klucel (hydroxypropylcellulose) (HPC)) 82 % of control.

Take `CC(C)CCCCCCCCCCCCC(=O)NCC(=O)NC1C(O)C(O)C(Nc2ncnc3nc[nH]c23)OC1C(O)CO` (centres undefined): the T/C (dose: 3.0 mg/kg/injection, vehicle: suspension in saline) is 91 % of control; the T/C (dose: 6.0 mg/kg/injection, vehicle: suspension in saline) was 109 % of control; the T/C (dose: 12.0 mg/kg/injection, vehicle: suspension in saline) was 30 % of control.

Turning to `CN(C)N=Nc1cccc(C(N)=O)c1`, the T/C reads like this: under setting [1], 102 % of control; under setting [2], 87 % of control; under setting [9], 81 % of control.

On to `CNC(=O)ON(C(C)=O)C(=O)NC`, for which the T/C is 81 % of control under setting [11] and 108 % of control under setting [10].

Turning to `C[n+]1c(-c2cccc3ccccc23)c2cc(N)ccc2c2ccccc21`, the T/C runs as follows: (dose: 3.0 mg/kg/injection, vehicle: saline) 76 % of control and 82 % of control; (dose: 6.0 mg/kg/injection, vehicle: saline) 78 % of control.

Turning to `C=CC(=O)NCNC(=O)C=C`, the T/C by setting is: (dose: 100.0 mg/kg/injection, vehicle: suspension in saline) 101 % of control; under setting [12], 84 % of control.

With `CO[C@H]1C[C@](C)(O)Cc2cc3c(c(O)c21)C(=O)c1c(O)cc2c(c1C3=O)O[C@@H]1O[C@@]2(C)[C@H](O)[C@@H](N(C)C)[C@@H]1O`, the T/C (dose: 6.25 mg/kg/injection, vehicle: other) was 169 % of control and the T/C (dose: 12.5 mg/kg/injection, vehicle: other) was 165 % of control.

In the case of `CC(C)CCCCCCCCCCCCC(=O)NCC(=O)NC1C(C)OC(Nc2ncnc3nc[nH]c23)C(O)C1O` (centres undefined), the T/C (dose: 3.13 mg/kg/injection, vehicle: distilled water + Tween-80) is 102 % of control.

In the case of `C1OC1CN1CCN(CC2CO2)CC1` (centres undefined), the T/C was 91 % of control under setting [11] and 79 % of control under setting [10].

For the compound `Cc1c(N)nc(C(CC(N)=O)NCC(N)C(N)=O)nc1C(=O)NC(C(=O)NC(C)C(O)CC(=O)NC(C(=O)NC(OC1OC(C)C(N)C(O)C1O)C(O)c1nc(-c2nc(C(=O)NCCCC(N)CC(=O)NCCCNCCCCN)cs2)cs1)C(C)O)C(OC1OC(CO)C(O)C(O)C1OC1OC(CO)C(O)C(OC(N)=O)C1O)c1cnc[nH]1` (centres undefined), the T/C runs as follows: under setting [3], 28 % of control; under setting [4], 11 % of control.

Regarding `CC1(CO)C(O)CCC2(C)C1CCC1CC3CC12CCC3(O)CO` (centres undefined), the T/C under setting [8] is 50 % of control; the T/C (dose: 200.0 mg/kg/injection, vehicle: saline with Tween-80) is 61 % of control; the T/C (dose: 400.0 mg/kg/injection, vehicle: saline with Tween-80) is 54 % of control.

As to `Cc1c(N)nc(C(CC(N)=O)NCC(N)C(N)=O)nc1C(=O)NC(C(=O)NC(C)C(O)C(C)C(=O)NC(C(=O)NCCc1nc(-c2nc(C(=O)NCCCNC(C)c3ccccc3)cs2)cs1)C(C)O)C(OC1OC(CO)C(O)C(O)C1OC1OC(CO)C(O)C(OC(N)=O)C1O)c1cnc[nH]1` (centres undefined), the T/C by setting is: (dose: 7.5 mg/kg/injection, vehicle: saline) 43 % of control and 50 % of control; (dose: 30.0 mg/kg/injection, vehicle: saline) 18 % of control and 22 % of control; (dose: 60.0 mg/kg/injection, vehicle: saline) 17 % of control.

For the compound `N[C@H](C(=O)O)[C@@H]1CC(Cl)=NO1`, the T/C by setting is: under setting [10], 19 % of control; under setting [6], 12 % of control; under setting [7], 5 % of control; under setting [5], 1 % of control.

In the case of `COc1cc(NS(C)(=O)=O)ccc1Nc1c2ccccc2nc2ccccc12`, the T/C (dose: 8.0 mg/kg/injection, vehicle: saline + alcohol) was 74 % of control.

In the case of `CN(N=O)C(=O)N[C@@H](C=O)[C@@H](O)[C@H](O)[C@H](O)CO`, the T/C reads like this: under setting [7], 58 % of control; under setting [5], 80 % of control.

On to `N=c1ccn2c(n1)OC1C(O)C(CO)OC12` (centres undefined), for which the T/C is, setting by setting: under setting [12], 65 % of control; under setting [13], 65 % of control; under setting [14], 47 % of control.

With `O=C/C(Cl)=C(/Cl)C(=O)O`, the T/C (dose: 12.5 mg/kg/injection, vehicle: saline with Tween-80) is 96 % of control.

In the case of `CN(C)C=O`, the T/C under setting [13] was 44 % of control; the T/C under setting [14] was 53 % of control; the T/C (dose: 1600.0 mg/kg/injection, vehicle: suspension in saline) is 57 % of control.

In the case of `O=[N+]([O-])/C=C\c1ccc2c(c1)OCO2`, the T/C is 83 % of control under setting [1] and 81 % of control (dose: 200.0 mg/kg/injection, vehicle: Klucel (hydroxypropylcellulose) (HPC)).
